Laboratory results published in patent US20050267054A1, “Antibacterial compounds with improved pharmacokinetic profiles” (priority 2002, published 2005).
Like-named read-outs stand apart in the source and are kept apart here.

Assay: Pharmacokinetic profile, cassette dosing protocol in dog (IV and PO)
Type: in vivo
Settings: male beagle dogs, 1 mg/kg; for AUC / clearance / half-life / Cmax / Tmax / Vd: dog, plasma; for clearance: read-out: CLp (IV) plasma clearance (converted); for Vd: male, beagle, iv
Procedure: The pharmacokinetic profiles of EXAMPLE 20, EXAMPLE 22, EXAMPLE 29 and EXAMPLE 31 were evaluated using cassette dosing protocols in dog. The cassette dosing protocol in dogs combined three test compounds with the reference compound (EXAMPLE 104 of commonly-owned U.S. Pat. No. 5,866,549), each at a dose of 1 mg/kg. The compounds for each cassette were formulated as a solution in an aqueous vehicle containing 10% ethanol and one equivalent hydrochloric acid. Groups of three male beagle dogs received either an intravenous dose (IV) or an oral dose (PO). Sequential blood samples were taken from each animal for 24 hours after dosing. The plasma concentrations of the test compound and reference compounds were simultaneously determined using HPLC-MS/MS following liquid-liquid extraction of the samples. The results are shown in TABLE 2, in which CLp is plasma clearance; T1/2 and Tmax are expressed in hours; Cmax is expressed in μg/mL; AUC is expressed in μg·h/mL; F is percent bioavaibility; and Vc and Vb (volumes of distibution) are expressed in L/Kg.

[1] = intravenous dose, read-out: AUC (IV)
[2] = intravenous dose, read-out: T1/2 (IV) (converted)
[3] = oral dose, read-out: T1/2 (PO) (converted)
[4] = intravenous dose, read-out: Vb (IV) volume of distribution
[5] = intravenous dose, read-out: Vc (IV) volume of distribution

SMILES	AUC [1] [ng·h/mL]	clearance (intravenous dose) [mL/min/kg]	half-life [2] [h]	Cmax (oral dose) [ng/mL]	Tmax (oral dose) [h]	AUC (oral dose, read-out: AUC (PO)) [ng·h/mL]	half-life [3] [h]	F (PO) percent bioavaibility (oral dose) [%]	Vd [4] [L/kg]	Vd [5] [L/kg]
CC[C@H]1OC(=O)[C@@](C)(F)C(=O)[C@H](C)[C@@H](O[C@@H]2O[C@H](C)C[C@H](N(C)C)[C@H]2O)C(C)(OCC#Cc2ccc(-c3nnn(C)n3)s2)C[C@@H](C)C(=O)[C@H](C)[C@H]2NC(=O)O[C@@]21C (stereo in doubt) [EXAMPLE 20, (3aS,4R,7S,9R,10R,11S,13R,15R,15aR)-4-ethyl-7-fluoro-3a,7,9,11,13,15-hexamethyl-11-((3-(5-(2-methyl-2H-tetraazol-5-yl)thien-2-yl)prop-2-ynyl)oxy)-2,6,8,14-tetraoxotetradecahydro-2H-oxacyclotetradecino(4,3-d) (1,3)-oxazol-10-yl 3,4,6-trideoxy-3-(dimethylamino)-β-D-xylo-hexopyranoside]	7290	2.67	14.4	250	2	5140	11.1	73.60	3.1	1.6
CC[C@H]1OC(=O)[C@H](C)C(=O)[C@H](C)[C@@H](O[C@@H]2O[C@H](C)C[C@H](N(C)C)[C@H]2O)C(C)(OC/C=C/c2ccc(-c3nnn(C)n3)s2)C[C@@H](C)C(=O)[C@H](C)[C@H]2NC(=O)O[C@@]21C (stereo in doubt) [EXAMPLE 22, (3aS,4R,7R,9R,10R,11S,13R,15R,15aR)-4-ethyl-3a,7,9,11,13,15-hexamethyl-11-(((2E)-3-(5-(2-methyl-2H-tetraazol-5-yl)thien-2-yl)prop-2-enyl)oxy)-2,6,8,14-tetraoxotetradecahydro-2H-oxacyclotetradecino(4,3-d) (1,3)-oxazol-10-yl 3,4,6-trideoxy-3-(dimethylamino)-β-D-xylo-hexopyranoside]	11500	1.5	8.4	490	1.5	6770	7.8	63.00	1.1	0.9
CC[C@H]1OC(=O)[C@H](C)C(=O)[C@H](C)[C@@H](O[C@@H]2O[C@H](C)C[C@H](N(C)C)[C@H]2O)C(C)(OCC#Cc2ccc(-c3nnn(C)n3)s2)C[C@@H](C)C(=O)[C@H](C)[C@H]2NC(=O)O[C@@]21C (stereo in doubt) [EXAMPLE 29, (3aS,4R,7R,9R,10R,11S,13R,15R,15aR)-4-ethyl-3a,7,9,11,13,15-hexamethyl-11-((3-(5-(2-methyl-2H-tetraazol-5-yl)thien-2-yl)prop-2-ynyl)oxy)-2,6,8,14-tetraoxotetradecahydro-2H-oxacyclotetradecino(4,3-d) (1,3)-oxazol-10-yl 3,4,6-trideoxy-3-(dimethylamino)-β-D-xylo-hexopyranoside]	–	–	–	–	–	–	–	80.30	1.2	0.9
CC[C@H]1OC(=O)[C@@](C)(F)C(=O)[C@H](C)[C@@H](O[C@@H]2O[C@H](C)C[C@H](N(C)C)[C@H]2O)C(C)(OC/C=C/c2ccc(-c3nnn(C)n3)s2)C[C@@H](C)C(=O)[C@H](C)[C@H]2NC(=O)O[C@@]21C (stereo in doubt) [EXAMPLE 31, (3aS,4R,7S,9R,10R,11S,13R,15R,15aR)-4-ethyl-7-fluoro-3a,7,9,11,13,15-hexamethyl-11-(((2E)-3-(5-(2-methyl-2H-tetraazol-5-yl)thien-2-yl)prop-2-enyl)oxy)-2,6,8,14-tetraoxotetradecahydro-2H-oxacyclotetradecino(4,3-d) (1,3)-oxazol-10-yl 3,4,6-trideoxy-3-(dimethylamino)-β-D-xylo-hexopyranoside]	16100	1.17	22.9	480	4.5	12600	17.2	81.10	2.3	1.1
